Assay results reported in the supplement of paper PMC10307832.

Experiments:
Experiment in all cases: relative viability (nuclei count vs DMSO), 5 days (fraction); higher = more cells survive
AZ628 + Foretinib = compound: CC1=C(C=C(C=C1)NC(=O)C2=CC(=CC=C2)C(C)(C)C#N)NC3=CC4=C(C=C3)N=CN(C4=O)C [AZ628] + COc1cc2c(Oc3ccc(NC(=O)C4(C(=O)Nc5ccc(F)cc5)CC4)cc3F)ccnc2cc1OCCCN1CCOCC1 [Foretinib] (partner 0.25 µM)
In short: (§1)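 Nuclei were stained with Hoechst during a one-step fixation (final 0.05% Triton X-100, 1% formaldehyde, 1 ug/ml Hoechst) carried out 5 days after dosing, then counted on 4× images. The cells, lung cancer lines in 1536-well plates, had been dosed by pin tool the day after seeding with one drug alone or a fixed anchor-drug dose plus five library-drug doses (not always all listed) in √10 steps. Relative viability is the nuclei count in treated wells divided by that in vehicle wells, and each value is the median of duplicate plates.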

AZ628 + Bortezomib = compound: CC1=C(C=C(C=C1)NC(=O)C2=CC(=CC=C2)C(C)(C)C#N)NC3=CC4=C(C=C3)N=CN(C4=O)C [AZ628] + CC(C)C[C@H](NC(=O)[C@H](Cc1ccccc1)NC(=O)c1cnccn1)B(O)O [Bortezomib] (partner 0.002 µM)
In short: as §1

QS11 + Decitabine = compound: C1CC2=C(C1)C=C(C=C2)OC3=NC(=C4C(=N3)N(C=N4)CC5=CC=C(C=C5)C6=CC=CC=C6)N[C@@H](CC7=CC=CC=C7)CO [QS11] + Nc1ncn([C@H]2C[C@H](O)[C@@H](CO)O2)c(=O)n1 [Decitabine] (partner 2 µM)
In short: as §1

Cell Line | relative viability (AZ628 + Foretinib; first compound 0.08 µM) | relative viability (AZ628 + Foretinib; first compound 0.253 µM) | relative viability (AZ628 + Foretinib; first compound 0.8 µM) | relative viability (AZ628 + Foretinib; first compound 2.53 µM) | relative viability (AZ628 + Foretinib; first compound 8 µM) | relative viability (AZ628 + Bortezomib; first compound 0.08 µM) | relative viability (AZ628 + Bortezomib; first compound 0.253 µM) | relative viability (AZ628 + Bortezomib; first compound 0.8 µM) | relative viability (AZ628 + Bortezomib; first compound 2.53 µM) | relative viability (AZ628 + Bortezomib; first compound 8 µM) | relative viability (QS11 + Decitabine; first compound 0.08 µM) | relative viability (QS11 + Decitabine; first compound 0.253 µM) | relative viability (QS11 + Decitabine; first compound 0.8 µM) | relative viability (QS11 + Decitabine; first compound 2.53 µM) | relative viability (QS11 + Decitabine; first compound 8 µM)
NCI-H650 | 1.02 | 1.21 | 1.19 | 1.14 | 1.13 | 1.2 | 1.05 | 1.32 | 0.744 | 1.02 | 0.283 | 0.365 | 0.347 | 0.298 | 0.322
NCI-H661 | 1.12 | 0.974 | 0.846 | 0.866 | 0.832 | 0.823 | 0.805 | 0.684 | 0.699 | 0.562 | 0.511 | 0.585 | 0.474 | 0.554 | 0.46
NCI-H727 | 0.628 | 0.455 | 0.383 | 0.319 | 0.322 | 0.604 | 0.487 | 0.389 | 0.42 | 0.295 | 0.767 | 0.855 | 0.762 | 0.899 | 0.61
NCI-H838 | 0.931 | 1 | 1.06 | 0.914 | 0.871 | 0.949 | 0.772 | 0.733 | 0.838 | 0.942 | 0.494 | 0.483 | 0.43 | 0.422 | 0.411
NCI-H1355 | 0.976 | 0.937 | 1.03 | 1.02 | 0.871 | 1.21 | 1.03 | 1.12 | 1.12 | 1.1 | 0.34 | 0.31 | 0.333 | 0.349 | 0.346
NCI-H1437 | 1.26 | 1.13 | 1.25 | 1.28 | 1.23 | 0.488 | 0.544 | 0.425 | 0.486 | 0.556 | 0.557 | 0.649 | 0.432 | 0.585 | 0.531
NCI-H1650 | 1.33 | 1.34 | 1.42 | 1.26 | 1.02 | 0.165 | 0.203 | 0.18 | 0.203 | 0.214 | 0.453 | 0.447 | 0.296 | 0.56 | 0.406
NCI-H1651 | 0.887 | 0.867 | 0.885 | 0.774 | 0.856 | 1.03 | 0.903 | 0.897 | 0.953 | 0.887 | 0.591 | 0.641 | 0.54 | 0.566 | 0.578
NCI-H1666 | 0.894 | 0.769 | 0.749 | 0.756 | 0.893 | 0.812 | 0.715 | 0.567 | 0.621 | 0.705 | 0.746 | 0.748 | 0.653 | 0.699 | 0.485
NCI-H1734 | 0.667 | 0.759 | 0.686 | 0.753 | 0.416 | 0.969 | 0.809 | 0.903 | 0.756 | 0.562 | 0.538 | 0.532 | 0.478 | 0.457 | 0.51
NCI-H1755 | 0.905 | 0.929 | 0.858 | 0.965 | 0.867 | 0.947 | 0.878 | 0.909 | 0.942 | 0.818 | 0.625 | 0.715 | 0.535 | 0.685 | 0.671
NCI-H1915 | 1.23 | 1.1 | 0.987 | 0.89 | 0.59 | 0.939 | 1.02 | 0.771 | 0.598 | 0.716 | 0.248 | 0.266 |  | 0.267 | 0.287
NCI-H1975 | 0.905 | 0.922 | 0.872 | 0.918 | 0.582 | 0.409 | 0.343 | 0.303 | 0.281 | 0.241 | 0.369 | 0.358 | 0.397 | 0.376 | 0.358
NCI-H1993 | 1.05 | 0.68 | 0.714 | 0.715 | 0.667 | 1.1 | 1.03 | 0.932 | 0.711 | 0.815 | 0.614 | 0.621 | 0.655 | 0.543 | 0.573
NCI-H2009 | 1.02 | 0.861 | 0.704 | 0.573 | 0.355 | 0.939 | 0.881 | 0.65 | 0.689 | 0.295 | 0.362 | 0.426 | 0.364 | 0.409 | 0.371
NCI-H2023 | 0.886 | 0.824 | 0.826 | 0.724 | 0.607 | 1.19 | 1.07 | 1.06 | 0.981 | 0.821 | 0.231 | 0.227 | 0.217 | 0.249 | 0.224
NCI-H2085 | 0.994 | 1.17 | 1.07 | 1.09 | 0.676 | 1.2 | 1.02 | 1.19 | 1.07 | 1.06 | 0.478 | 0.549 | 0.49 | 0.56 | 0.557
NCI-H2087 | 0.839 | 0.821 | 0.727 | 0.78 | 0.256 | 0.831 | 0.738 | 0.783 | 0.775 | 0.399 | 0.287 | 0.325 | 0.252 | 0.305 | 0.299
NCI-H2126 | 1.27 | 1.18 | 1.22 | 0.922 | 0.94 | 1.16 | 1 | 1.13 | 1.17 | 1.18 | 0.588 | 0.63 | 0.573 | 0.574 | 0.473
NCI-H2347 | 0.697 | 0.81 | 0.704 | 0.976 | 0.407 | 0.859 | 0.962 | 0.721 | 0.828 | 0.623 | 0.587 | 0.563 | 0.582 | 0.694 | 0.659
NCI-H2405 | 0.637 | 0.857 | 0.673 | 0.757 | 0.539 | 0.756 | 0.864 | 0.548 | 0.68 | 1.09 | 0.793 | 0.714 | 0.706 | 0.906 | 0.843
NCI-H3122 | 0.787 | 0.625 | 0.499 | 0.613 | 0.233 | 0.987 | 0.887 | 0.723 | 0.696 | 0.444 | 0.484 | 0.554 |  | 0.487 | 0.556
PC-3 [JPC-3] | 1.01 | 1.07 | 1.05 | 1.03 | 0.92 | 0.778 | 0.924 | 0.9 | 0.801 | 0.857 |  | 0.76 | 0.836 | 0.871 | 0.806
PC-14 | 0.95 | 0.916 | 0.949 | 0.945 | 0.765 | 0.815 | 0.746 | 0.942 | 1.08 | 0.604 | 0.244 | 0.196 | 0.199 | 0.22 | 0.195
RERF-LC-KJ | 0.885 | 0.922 | 0.898 | 0.899 | 0.893 | 1.22 | 1.14 | 1.29 | 1.12 | 1.03 | 0.765 | 0.691 | 0.619 | 0.692 | 0.524
SK-LU-1 |  | 0.75 | 0.685 | 0.628 | 0.589 | 1.1 | 1.05 | 1.17 | 0.854 | 1.04 | 0.586 | 0.59 | 0.595 | 0.6 | 0.57
SW 1573 | 0.858 | 0.858 | 0.664 | 0.7 | 0.517 | 0.952 | 0.911 | 0.886 | 0.946 | 0.621 | 0.548 | 0.612 | 0.558 | 0.475 | 0.388
UMC-11 | 1.13 | 0.916 | 0.951 | 1 | 1.19 | 0.935 | 0.571 | 0.694 | 0.739 | 0.666 | 0.318 | 0.482 | 0.604 | 0.543 | 0.651
